Source: PubChem BioAssay AID1918947 (Molecular Pharmacology Branch, DTP, NCI, 2023)

System: A498 complex spheroid viability
Assay: Anticancer human tumor A498 cell line growth inhibition;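 further: spheroids exposed to agents for seven days before readout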;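 on viability, T/C: 100% = DMSO vehicle-treated spheroids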
Conditions: for IC50: curve of first compound; for viability, T/C: stronger effect = lower value
Procedure, shortened: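 Complex spheroids of tumor cells with HUVEC and human MSCs, exposed to iadademstat combined with other agents. Each agent tested in half-log steps from near clinical Cmax (else 10 microM top), DMSO ≤0.25%.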

[1] = second compound 0.1 µM, first compound 0.00949 µM
[2] = second compound 0.1 µM, first compound 0.03 µM
[3] = second compound 0.1 µM, first compound 0.0949 µM
[4] = second compound 0.1 µM, first compound 0.3 µM
[5] = second compound 0.1 µM, first compound 0.949 µM
[6] = second compound 0.1 µM, first compound 3 µM
[7] = second compound 0.316 µM, first compound 0.00949 µM
[8] = second compound 0.316 µM, first compound 0.03 µM
[9] = second compound 0.316 µM, first compound 0.0949 µM
[10] = second compound 0.316 µM, first compound 0.3 µM
[11] = second compound 0.316 µM, first compound 0.949 µM
[12] = second compound 0.316 µM, first compound 3 µM
[13] = second compound 1 µM, first compound 0.00949 µM
[14] = second compound 1 µM, first compound 0.03 µM
[15] = second compound 1 µM, first compound 0.0949 µM
[16] = second compound 1 µM, first compound 0.3 µM
[17] = second compound 1 µM, first compound 0.949 µM
[18] = second compound 1 µM, first compound 3 µM
[19] = second compound 3.16 µM, first compound 0.00949 µM
[20] = second compound 3.16 µM, first compound 0.03 µM
[21] = second compound 3.16 µM, first compound 0.0949 µM
[22] = second compound 3.16 µM, first compound 0.3 µM
[23] = second compound 3.16 µM, first compound 0.949 µM
[24] = second compound 3.16 µM, first compound 3 µM
[25] = second compound 10 µM, first compound 0.00949 µM
[26] = second compound 10 µM, first compound 0.03 µM
[27] = second compound 10 µM, first compound 0.0949 µM
[28] = second compound 10 µM, first compound 0.3 µM
[29] = second compound 10 µM, first compound 0.949 µM
[30] = second compound 10 µM, first compound 3 µM
[31] = second compound 0.1 µM, first compound 0.00316 µM
[32] = second compound 0.1 µM, first compound 0.01 µM
[33] = second compound 0.1 µM, first compound 0.0316 µM
[34] = second compound 0.1 µM, first compound 0.1 µM
[35] = second compound 0.1 µM, first compound 0.316 µM
[36] = second compound 0.1 µM, first compound 1 µM
[37] = second compound 0.316 µM, first compound 0.00316 µM
[38] = second compound 0.316 µM, first compound 0.01 µM
[39] = second compound 0.316 µM, first compound 0.0316 µM
[40] = second compound 0.316 µM, first compound 0.1 µM
[41] = second compound 0.316 µM, first compound 0.316 µM
[42] = second compound 0.316 µM, first compound 1 µM
[43] = second compound 1 µM, first compound 0.00316 µM
[44] = second compound 1 µM, first compound 0.01 µM
[45] = second compound 1 µM, first compound 0.0316 µM
[46] = second compound 1 µM, first compound 0.1 µM
[47] = second compound 1 µM, first compound 0.316 µM
[48] = second compound 1 µM, first compound 1 µM
[49] = second compound 3.16 µM, first compound 0.00316 µM
[50] = second compound 3.16 µM, first compound 0.01 µM
[51] = second compound 3.16 µM, first compound 0.0316 µM
[52] = second compound 3.16 µM, first compound 0.1 µM
[53] = second compound 3.16 µM, first compound 0.316 µM
[54] = second compound 3.16 µM, first compound 1 µM
[55] = second compound 10 µM, first compound 0.00316 µM
[56] = second compound 10 µM, first compound 0.01 µM
[57] = second compound 10 µM, first compound 0.0316 µM
[58] = second compound 10 µM, first compound 0.1 µM
[59] = second compound 10 µM, first compound 0.316 µM
[60] = second compound 10 µM, first compound 1 µM

`O=C(C=Cc1cccc(S(=O)(=O)Nc2ccccc2)c1)NO` + NC1CCC(NC2CC2c2ccccc2)CC1 showed an IC50 (second compound 0.1 µM) of 266 nM, an IC50 (second compound 0.316 µM) of 253 nM and an IC50 (second compound 1 µM) of 250 nM. The IC50 (second compound 3.16 µM) was 168 nM, the IC50 (second compound 10 µM) was 131 nM and the viability, T/C [1] was 81.5%. The viability, T/C [2] was 82.3%, the viability, T/C [3] was 67.1% and the viability, T/C [4] was 43.2%. For the same molecule, the viability, T/C [5] was 33.6%, the viability, T/C [6] was 12.9% and the viability, T/C [7] was 88%. The viability, T/C [8] was 87.1%, the viability, T/C [9] was 69.3% and the viability, T/C [10] was 41.2%. It also gave a viability, T/C [11] of 33.1%, a viability, T/C [12] of 11.7% and a viability, T/C [13] of 79.1%. For the same molecule, the viability, T/C [14] was 78%, the viability, T/C [15] was 63.1% and the viability, T/C [16] was 46.8%. The viability, T/C [17] was 28.1%, the viability, T/C [18] was 10.4% and the viability, T/C [19] was 79.9%. For the same molecule, the viability, T/C [20] was 72.7%, the viability, T/C [21] was 60.4% and the viability, T/C [22] was 38.8%. It also gave a viability, T/C [23] of 23.2%, a viability, T/C [24] of 8.14% and a viability, T/C [25] of 70.4%. The viability, T/C [26] was 64.6%, the viability, T/C [27] was 56.5% and the viability, T/C [28] was 36%. It also gave a viability, T/C [29] of 22.9% and a viability, T/C [30] of 7.67%.
Work on `CC1COCCN1c1cc(-c2ccnn2C)c2ccnc(-c3ccn[nH]3)c2n1` (stereo not given) + NC1CCC(NC2CC2c2ccccc2)CC1 yielded an IC50 (second compound 0.1 µM) of 21.9 nM, an IC50 (second compound 0.316 µM) of 24.7 nM and an IC50 (second compound 1 µM) of 24.5 nM. It also gave an IC50 (second compound 3.16 µM) of 22.8 nM, an IC50 (second compound 10 µM) of 14.1 nM and a viability, T/C [31] of 83.9%. For the same molecule, the viability, T/C [32] was 76.2%, the viability, T/C [33] was 37.5% and the viability, T/C [34] was 16.3%. It also gave a viability, T/C [35] of 14%, a viability, T/C [36] of 9.97% and a viability, T/C [37] of 89.7%. The viability, T/C [38] was 79.6%, the viability, T/C [39] was 41.3% and the viability, T/C [40] was 19.1%. It also gave a viability, T/C [41] of 14.3%, a viability, T/C [42] of 10.5% and a viability, T/C [43] of 84.8%. It also gave a viability, T/C [44] of 74.4%, a viability, T/C [45] of 42.8% and a viability, T/C [46] of 19.3%. The viability, T/C [47] was 15%, the viability, T/C [48] was 9.26% and the viability, T/C [49] was 81.5%. The viability, T/C [50] was 71.2%, the viability, T/C [51] was 41.4% and the viability, T/C [52] was 19.4%. The viability, T/C [53] was 14.8%, the viability, T/C [54] was 9.59% and the viability, T/C [55] was 71.5%. The viability, T/C [56] was 58.9%, the viability, T/C [57] was 30.7% and the viability, T/C [58] was 22.7%. It also gave a viability, T/C [59] of 13.9% and a viability, T/C [60] of 9.55%.
In the case of `Cn1ncnc1C1c2n[nH]c(=O)c3cc(F)cc(c23)NC1c1ccc(F)cc1` (stereo not given) + NC1CC1c1ccc(-c2cccc(O)c2)cc1, the IC50 (second compound 0.1 µM) is reported as over 100 nM, the IC50 (second compound 0.316 µM) is reported as over 100 nM and the IC50 (second compound 1 µM) is reported as over 100 nM. It also gave an IC50 (second compound 3.16 µM) of over 100 nM, an IC50 (second compound 10 µM) of over 100 nM and a viability, T/C (second compound 0.1 µM, first compound 0.000316 µM) of 94.6%. For the same molecule, the viability, T/C (second compound 0.1 µM, first compound 0.001 µM) was 97.7%, the viability, T/C [31] was 104% and the viability, T/C [32] was 94.9%. For the same molecule, the viability, T/C [33] was 96.2%, the viability, T/C [34] was 94.2% and the viability, T/C (second compound 0.316 µM, first compound 0.000316 µM) was 103%. The viability, T/C (second compound 0.316 µM, first compound 0.001 µM) was 111%, the viability, T/C [37] was 104% and the viability, T/C [38] was 92.1%. It also gave a viability, T/C [39] of 100%, a viability, T/C [40] of 93.3% and a viability, T/C (second compound 1 µM, first compound 0.000316 µM) of 89.3%. For the same molecule, the viability, T/C (second compound 1 µM, first compound 0.001 µM) was 93.3%, the viability, T/C [43] was 96.4% and the viability, T/C [44] was 84.6%. The viability, T/C [45] was 89.1%, the viability, T/C [46] was 87.8% and the viability, T/C (second compound 3.16 µM, first compound 0.000316 µM) was 87%. The viability, T/C (second compound 3.16 µM, first compound 0.001 µM) was 89.8%, the viability, T/C [49] was 90.2% and the viability, T/C [50] was 89%. For the same molecule, the viability, T/C [51] was 91.9%, the viability, T/C [52] was 77.8% and the viability, T/C (second compound 10 µM, first compound 0.000316 µM) was 80.8%. For the same molecule, the viability, T/C (second compound 10 µM, first compound 0.001 µM) was 86.6%, the viability, T/C [55] was 91.3% and the viability, T/C [56] was 87.3%. The viability, T/C [57] was 78.6% and the viability, T/C [58] was 78.4%.
With `O=C(C=Cn1cnc(-c2cc(C(F)(F)F)cc(C(F)(F)F)c2)n1)NNc1cnccn1` + NC1CC1c1ccc(-c2cccc(O)c2)cc1 the IC50 (second compound 0.1 µM) was 11.8 nM, the IC50 (second compound 0.316 µM) was 9.73 nM and the IC50 (second compound 1 µM) was 9.22 nM. The IC50 (second compound 3.16 µM) was 6.36 nM, the IC50 (second compound 10 µM) was 7.24 nM and the viability, T/C [31] was 69.8%. It also gave a viability, T/C [32] of 50.3%, a viability, T/C [33] of 40.5% and a viability, T/C [34] of 29.3%. It also gave a viability, T/C [35] of 25.2%, a viability, T/C [36] of 19.3% and a viability, T/C [37] of 72.2%. It also gave a viability, T/C [38] of 47.7%, a viability, T/C [39] of 37.5% and a viability, T/C [40] of 28.8%. For the same molecule, the viability, T/C [41] was 25.8%, the viability, T/C [42] was 20.1% and the viability, T/C [43] was 70.9%. For the same molecule, the viability, T/C [44] was 46.9%, the viability, T/C [45] was 37.1% and the viability, T/C [46] was 28.4%. For the same molecule, the viability, T/C [47] was 27.8%, the viability, T/C [48] was 20.7% and the viability, T/C [49] was 61%. For the same molecule, the viability, T/C [50] was 41.9%, the viability, T/C [51] was 34.8% and the viability, T/C [52] was 26.8%. The viability, T/C [53] was 27%, the viability, T/C [54] was 22.3% and the viability, T/C [55] was 61.3%. It also gave a viability, T/C [56] of 43.8%, a viability, T/C [57] of 36.5% and a viability, T/C [58] of 31.8%. For the same molecule, the viability, T/C [59] was 24.1% and the viability, T/C [60] was 21.6%.
In the case of `O=C(C=Cc1cccc(S(=O)(=O)Nc2ccccc2)c1)NO` + NC1CC1c1ccc(-c2cccc(O)c2)cc1, the IC50 (second compound 0.1 µM) is reported as 352 nM, the IC50 (second compound 0.316 µM) is reported as 398 nM and the IC50 (second compound 1 µM) is reported as 325 nM. For the same molecule, the IC50 (second compound 3.16 µM) was 364 nM, the IC50 (second compound 10 µM) was 343 nM and the viability, T/C [1] was 105%. For the same molecule, the viability, T/C [2] was 90.2%, the viability, T/C [3] was 78.6% and the viability, T/C [4] was 49%. For the same molecule, the viability, T/C [5] was 32.4%, the viability, T/C [6] was 7.4% and the viability, T/C [7] was 105%. It also gave a viability, T/C [8] of 93.2%, a viability, T/C [9] of 76.9% and a viability, T/C [10] of 53.3%. The viability, T/C [11] was 34.3%, the viability, T/C [12] was 7.34% and the viability, T/C [13] was 98.4%. The viability, T/C [14] was 88.3%, the viability, T/C [15] was 76.8% and the viability, T/C [16] was 49.3%. It also gave a viability, T/C [17] of 28.4%, a viability, T/C [18] of 6.7% and a viability, T/C [19] of 93.9%. For the same molecule, the viability, T/C [20] was 84.4%, the viability, T/C [21] was 66.6% and the viability, T/C [22] was 52.2%. The viability, T/C [23] was 37.6%, the viability, T/C [24] was 5.52% and the viability, T/C [25] was 93.2%. It also gave a viability, T/C [26] of 81.3%, a viability, T/C [27] of 66.7% and a viability, T/C [28] of 55.5%. For the same molecule, the viability, T/C [29] was 30.7% and the viability, T/C [30] was 5.21%.
